Measurements reported in the SangsterLogP compilation.

What was measured:
[1] = from Büchel, K. H., & Draber, W. (1969). Structure-activity relationship of photosynthesis inhibition by NH-acidic pi-excessive heteroaromatics. In H. Metzner (Ed.), Progress in Photosynthesis Research: …; conditions: pH 7.3

SMILES	logP	logD [1]
FC(F)(F)c1nc2cc(Br)c(Br)cc2[nH]1	4.15	–
FC(F)(F)c1nc2c(Cl)cccc2[nH]1	2.93	–
FC(F)(F)c1nc2cc(Cl)c(Cl)cc2[nH]1	3.99	–
FC(F)(F)c1nc2c(Cl)c(Cl)c(Cl)cc2[nH]1	3.87	–
FC(F)(F)c1nc2ncc(Cl)cc2[nH]1	–	2.46
FC(F)(F)c1nc2ccccc2[nH]1	2.67	–
Cc1cc2nc[nH]c2cc1C	2.35	–
FC(F)(F)c1nc2c(Cl)ccc(Cl)c2[nH]1	2.87	–
Brc1n[nH]c(Br)n1	2.24	–
FC(F)(F)c1nc2nc3c(Cl)cc(Cl)cc3nc2[nH]1	–	5.18
FC(F)(F)c1nc2c(Cl)c(Cl)cc(Cl)c2[nH]1	3.78	–
FC(F)(F)c1nc2nc3cc(Cl)ccc3nc2[nH]1	–	3.91
CCCCCCCCc1ccc2[nH]c(C(F)(F)F)nc2c1	4.38	–
FC(F)(F)c1nc2cc(Br)ccc2[nH]1	3.57	–

Continued, values first:

logP	logD [1]	SMILES
4.81	–	FC(F)(F)c1nc2c(Br)c(Br)c(Br)c(Br)c2[nH]1
3.49	–	FC(F)(F)c1nc2c(Cl)cc(Cl)cc2[nH]1
2.78	–	Ic1nc(I)c(I)[nH]1
3.97	–	FC(F)(F)c1nc2c(Cl)c(Cl)c(Cl)c(Cl)c2[nH]1
–	0.94	FC(F)(F)c1nc2cnccc2[nH]1
–	3.08	FC(F)(F)c1nc2nc3ccccc3nc2[nH]1
2.68	–	O=[N+]([O-])c1ccc2[nH]c(C(F)(F)F)nc2c1
4.27	–	CCCCc1ccc2[nH]c(C(F)(F)F)nc2c1
3.39	–	FC(F)(F)c1nc2cc(Cl)ccc2[nH]1
2.44	–	Brc1nn[nH]c1Br
1.85	–	Clc1nc(Cl)c(Cl)[nH]1
4.08	–	FC(F)(F)c1nc2c(Br)c(Br)c(Br)cc2[nH]1
3.19	–	Cc1c(C)c(Cl)c2[nH]c(C(F)(F)F)nc2c1Cl
–	1.38	FC(F)(F)c1nc2ncccc2[nH]1
3.22	–	CSc1nc2cc(Cl)ccc2[nH]1
3.49	–	FC(F)(F)c1nc2c(Cl)c(Cl)ccc2[nH]1
3.08	–	Brc1nc(Br)c2[nH]c(Br)nc2n1
